In PubChem BioAssay (NCI):
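These data come from cells grown in 96-well plates and exposed to compound for 48 hours at five concentrations. TGI: total growth inhibition.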

Columns and labels:
Assay in all cases: DTP human tumour cell line panel, 48 h
IGROV1 ovarian = test system: IGROV1 ovarian
RPMI-8226 leukemia = test system: RPMI-8226 leukemia
NCI-H23 lung = test system: NCI-H23 lung
SF-268 CNS = test system: SF-268 CNS
SW-620 colon = test system: SW-620 colon
CCRF-CEM leukemia = test system: CCRF-CEM leukemia
CAKI-1 renal = test system: CAKI-1 renal
UACC-62 melanoma = test system: UACC-62 melanoma
SN12C renal = test system: SN12C renal
MALME-3M melanoma = test system: MALME-3M melanoma
U251 CNS = test system: U251 CNS
MDA-MB-231 breast = test system: MDA-MB-231 breast
T-47D breast = test system: T-47D breast
SK-MEL-5 melanoma = test system: SK-MEL-5 melanoma
SF-539 CNS = test system: SF-539 CNS
MCF7 breast = test system: MCF7 breast
OVCAR-3 ovarian = test system: OVCAR-3 ovarian
OVCAR-5 ovarian = test system: OVCAR-5 ovarian
786-0 renal = test system: 786-0 renal
HL-60(TB) leukemia = test system: HL-60(TB) leukemia
SNB-19 CNS = test system: SNB-19 CNS
OVCAR-4 ovarian = test system: OVCAR-4 ovarian
NCI/ADR-RES ovarian = test system: NCI/ADR-RES ovarian
HCT-116 colon = test system: HCT-116 colon
HCC-2998 colon = test system: HCC-2998 colon
MDA-MB-435 = test system: MDA-MB-435
KM12 colon = test system: KM12 colon
COLO 205 colon = test system: COLO 205 colon
A549 NSCLC = test system: A549 NSCLC
HOP-92 NSCLC = test system: HOP-92 NSCLC
SK-MEL-28 melanoma = test system: SK-MEL-28 melanoma
HOP-62 NSCLC = test system: HOP-62 NSCLC
K-562 leukemia = test system: K-562 leukemia
MOLT-4 leukemia = test system: MOLT-4 leukemia
ACHN renal = test system: ACHN renal
A498 renal = test system: A498 renal
BT-549 breast = test system: BT-549 breast
SNB-75 CNS = test system: SNB-75 CNS
PC-3 prostate = test system: PC-3 prostate
UACC-257 melanoma = test system: UACC-257 melanoma
NCI-H460 lung = test system: NCI-H460 lung
HT29 colon = test system: HT29 colon
OVCAR-8 ovarian = test system: OVCAR-8 ovarian
LOX IMVI melanoma = test system: LOX IMVI melanoma
MDA-N = test system: MDA-N
SK-OV-3 ovarian = test system: SK-OV-3 ovarian
NCI-H226 lung = test system: NCI-H226 lung
HCT-15 colon = test system: HCT-15 colon
M14 melanoma = test system: M14 melanoma
SK-MEL-2 melanoma = test system: SK-MEL-2 melanoma
SR leukemia = test system: SR leukemia
DU-145 prostate = test system: DU-145 prostate
SF-295 CNS = test system: SF-295 CNS
TK-10 renal = test system: TK-10 renal
EKVX NSCLC = test system: EKVX NSCLC
NCI-H522 lung = test system: NCI-H522 lung
UO-31 renal = test system: UO-31 renal
RXF 393 renal = test system: RXF 393 renal
HS 578T breast = test system: HS 578T breast

Measured: TGI

C[C@H]1C(OCCOC2O[C@@H]3O[C@@]4(C)CC[C@H]5[C@H](C)CCC([C@H]2C)[C@@]35O4)O[C@@H]2O[C@@]3(C)CC[C@H]4[C@H](C)CCC1[C@@]24O3 (stereo partly drawn)
37.7 µM: COLO 205 colon
43.7 µM: HCC-2998 colon
74.9 µM: HL-60(TB) leukemia
82.5 µM: CCRF-CEM leukemia
41.5 µM: MALME-3M melanoma
> 100 µM: RPMI-8226 leukemia | NCI-H23 lung | SF-268 CNS | SW-620 colon | CAKI-1 renal | UACC-62 melanoma | U251 CNS | SF-539 CNS | MCF7 breast | OVCAR-3 ovarian | OVCAR-5 ovarian | 786-0 renal | SNB-19 CNS | OVCAR-4 ovarian | NCI/ADR-RES ovarian | MDA-MB-435 | KM12 colon | A549 NSCLC | HOP-92 NSCLC | SK-MEL-28 melanoma | HOP-62 NSCLC | K-562 leukemia | MOLT-4 leukemia | ACHN renal | A498 renal | BT-549 breast | PC-3 prostate | UACC-257 melanoma | NCI-H460 lung | HT29 colon | OVCAR-8 ovarian | MDA-N | SK-OV-3 ovarian | NCI-H226 lung | HCT-15 colon | M14 melanoma | SR leukemia
52.6 µM: SN12C renal
57.5 µM: LOX IMVI melanoma
74.3 µM: DU-145 prostate
78.6 µM: HCT-116 colon
90.6 µM: IGROV1 ovarian
42.3 µM: SK-MEL-2 melanoma
81.7 µM: SNB-75 CNS
75.1 µM: MDA-MB-231 breast
32.2 µM: SK-MEL-5 melanoma
37.5 µM: T-47D breast

Cc1ncc(CO)c(CN)c1O
> 100 µM: IGROV1 ovarian | RPMI-8226 leukemia | NCI-H23 lung | SF-268 CNS | SW-620 colon | SF-295 CNS | CCRF-CEM leukemia | TK-10 renal | CAKI-1 renal | UACC-62 melanoma | SN12C renal | MALME-3M melanoma | U251 CNS | MDA-MB-231 breast | T-47D breast | SK-MEL-5 melanoma | SF-539 CNS | MCF7 breast | OVCAR-3 ovarian | EKVX NSCLC | OVCAR-5 ovarian | 786-0 renal | HL-60(TB) leukemia | SNB-19 CNS | OVCAR-4 ovarian | NCI/ADR-RES ovarian | HCT-116 colon | HCC-2998 colon | MDA-MB-435 | KM12 colon | COLO 205 colon | NCI-H522 lung | A549 NSCLC | SK-MEL-28 melanoma | HOP-62 NSCLC | K-562 leukemia | MOLT-4 leukemia | ACHN renal | A498 renal | BT-549 breast | UO-31 renal | PC-3 prostate | UACC-257 melanoma | RXF 393 renal | NCI-H460 lung | HT29 colon | OVCAR-8 ovarian | LOX IMVI melanoma | MDA-N | SK-OV-3 ovarian | NCI-H226 lung | HCT-15 colon | M14 melanoma | SK-MEL-2 melanoma | HS 578T breast | DU-145 prostate
